Experimental data: ChEMBL document CHEMBL1201862, “PubChem BioAssay data set” (2004)
Calls of active or inactive are those of the source.

Legend:
Major prion protein = Major prion protein (Homo sapiens, UniProt P04156); type: functional, cell-based
cells [1] = experiment: cells
[2] = target: T1, Short transient receptor potential channel 4 (Mus musculus, UniProt Q9QUQ5); experiment: calcium entry via TRPC4 opening agents – cell-based, HEK293 TRPC4/mu-opioid, Fluo-4 calcium, dose response (AID 434937); type: functional
T1 sequence (Q9QUQ5 whole entry): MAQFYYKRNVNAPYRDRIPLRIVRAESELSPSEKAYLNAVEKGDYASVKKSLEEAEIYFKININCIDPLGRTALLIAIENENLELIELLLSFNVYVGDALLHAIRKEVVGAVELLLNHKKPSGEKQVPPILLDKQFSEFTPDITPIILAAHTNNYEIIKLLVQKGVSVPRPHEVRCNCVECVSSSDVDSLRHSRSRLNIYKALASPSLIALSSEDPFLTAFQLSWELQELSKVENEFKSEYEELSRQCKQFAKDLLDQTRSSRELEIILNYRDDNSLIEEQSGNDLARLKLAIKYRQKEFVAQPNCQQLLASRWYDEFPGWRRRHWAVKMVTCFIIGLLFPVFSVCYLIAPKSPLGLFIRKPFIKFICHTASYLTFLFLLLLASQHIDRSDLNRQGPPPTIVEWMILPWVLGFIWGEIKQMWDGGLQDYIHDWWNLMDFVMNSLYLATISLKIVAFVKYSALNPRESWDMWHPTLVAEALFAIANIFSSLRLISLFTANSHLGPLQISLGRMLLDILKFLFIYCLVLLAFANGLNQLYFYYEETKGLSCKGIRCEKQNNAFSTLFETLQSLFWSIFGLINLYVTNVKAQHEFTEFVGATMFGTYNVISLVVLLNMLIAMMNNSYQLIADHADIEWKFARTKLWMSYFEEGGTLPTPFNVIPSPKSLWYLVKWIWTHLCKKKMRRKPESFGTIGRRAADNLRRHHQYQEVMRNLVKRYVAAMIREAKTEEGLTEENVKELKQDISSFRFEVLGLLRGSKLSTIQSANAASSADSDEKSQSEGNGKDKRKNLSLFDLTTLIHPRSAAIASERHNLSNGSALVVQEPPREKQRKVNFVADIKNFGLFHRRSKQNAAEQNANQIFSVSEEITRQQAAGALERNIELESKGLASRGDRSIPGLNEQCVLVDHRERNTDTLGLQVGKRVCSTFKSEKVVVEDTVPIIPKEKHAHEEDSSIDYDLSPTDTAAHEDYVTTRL

[3] = target: Delta-type opioid receptor (Homo sapiens, UniProt P41143); experiment: Counterscreen for agonists of heterodimerization of the mu 1 (OPRM1) and delta 1 (OPRD1) opioid receptors: Luminescence-based cell-based high throughput dose response assay to identify agonists of OPRD1 homodimerization. [Related pubchem assays (depositor defined):AID504326, AID504355, AID504692, AID504904, AID504905]; type: functional
Mu-type opioid receptor = Mu-type opioid receptor (Homo sapiens, UniProt P35372); experiment: Counterscreen for agonists of heterodimerization of the mu 1 (OPRM1) and delta 1 (OPRD1) opioid receptors: Luminescence-based cell-based high throughput dose response assay to identify agonists of OPRM1 homodimerization.; type: functional;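 further: U2OS cells expressing OPRM1 and beta-arrestin as split beta-galactosidase partners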
[4] = target: 5-hydroxytryptamine receptor 5A (Homo sapiens, UniProt P47898); experiment: Counterscreen for agonists of OPRM1-OPRD1 heterodimerization: luminescence-based cell-based high throughput dose response assay to identify agonists of 5-hydroxytryptamine (serotonin) 5A receptor (HTR5A). [Related pubchem assays (depositor defined):AID504326, AID504355, AID504692, AID504904, AID504905]; type: functional
[5] = blockers of HIV-1 envelope-mediated cell-cell fusion – cherry-pick, dose response (AID 652057); type: functional, cell-based
[6] = viability loss in CEM21 cells – cell-based, CellTiter-Glo luminescence, cherry-picked, cytotoxicity control for viral fusion inhibitor project, dose response (AID 652042); type: functional;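 further: potency for signal decrease meaning cytotoxicity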
[7] = blockers of HIV-1 ZM109 envelope-driven cell-cell fusion – HeLa effector, CEM target cells, luciferase, cherry-pick, dose response (AID 652058); type: functional, cell-based;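 further: luciferase signal from HIV-1 Env mediated cell-cell fusion of effector and target cells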
[8] = off-target signal loss in HeLa-CEM21 co-culture – HeLa F-luc CTL cells, cherry-picked, counter-screen for HIV-1 Env fusion inhibitor project, dose response (AID 652040); type: functional, cell-based;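 further: potency for signal decrease marking cytotoxic or nonspecific inhibition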
Galanin receptor type 3 = target: T2, Galanin receptor type 3 (Homo sapiens, UniProt O60755); experiment: Fluorescence-based cell-based primary high throughput dose response assay to identify antagonists of the Galanin Receptor 3 (GalR3).; type: functional
T2 sequence (O60755 whole entry): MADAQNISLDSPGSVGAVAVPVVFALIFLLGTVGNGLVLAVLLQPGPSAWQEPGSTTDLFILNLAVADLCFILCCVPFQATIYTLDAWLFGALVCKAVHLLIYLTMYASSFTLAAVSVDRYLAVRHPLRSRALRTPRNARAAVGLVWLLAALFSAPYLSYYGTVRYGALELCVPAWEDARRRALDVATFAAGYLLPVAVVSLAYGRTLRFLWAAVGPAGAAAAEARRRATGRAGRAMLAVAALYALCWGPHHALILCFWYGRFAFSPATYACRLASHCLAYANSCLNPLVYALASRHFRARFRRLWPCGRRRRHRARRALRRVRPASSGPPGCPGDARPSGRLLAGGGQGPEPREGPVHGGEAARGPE

cells [9] = type: functional, cell-based; details: HEK-CNG
[10] = target: Nuclear receptor subfamily 5 group A member 2 (Homo sapiens, UniProt O00482); type: functional, cell-based;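 further: HEK293T cells transfected with LRH-1 and a StAR promoter luciferase reporter; potency for inhibitors that lower LRH-1 driven reporter light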
Steroidogenic factor 1 = Steroidogenic factor 1 (Homo sapiens, UniProt Q13285); experiment: Counterscreen for inverse agonists of the liver receptor homolog-1 (LRH-1; NR5A2): Luminescence-based cell-based high throughput dose response assay to identify inverse agonists of the Steroidogenic Factor 1 Nuclear Receptor (SF1; NR5A1).; type: functional
[11] = nonselective StAR promoter luciferase inhibitors – cell-based, luminescence, luciferase reporter, counter-screen for LRH-1 inverse agonist project, dose response (AID 651969); type: functional
Beta-galactosidase = Beta-galactosidase (Escherichia coli, UniProt Q8VNN2); experiment: PubChem AID 485352; type: functional
[12] = target: T3, Type-1 angiotensin II receptor (Homo sapiens, UniProt P30556); experiment: antagonism of angiotensin II type 1 receptor – cell-based, uHTS hits, selectivity assay for APJ receptor antagonist project, dose response (AID 463214); type: functional;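 further: antagonist potency against angiotensin II stimulated AT1 response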
T3 sequence (P30556 whole entry): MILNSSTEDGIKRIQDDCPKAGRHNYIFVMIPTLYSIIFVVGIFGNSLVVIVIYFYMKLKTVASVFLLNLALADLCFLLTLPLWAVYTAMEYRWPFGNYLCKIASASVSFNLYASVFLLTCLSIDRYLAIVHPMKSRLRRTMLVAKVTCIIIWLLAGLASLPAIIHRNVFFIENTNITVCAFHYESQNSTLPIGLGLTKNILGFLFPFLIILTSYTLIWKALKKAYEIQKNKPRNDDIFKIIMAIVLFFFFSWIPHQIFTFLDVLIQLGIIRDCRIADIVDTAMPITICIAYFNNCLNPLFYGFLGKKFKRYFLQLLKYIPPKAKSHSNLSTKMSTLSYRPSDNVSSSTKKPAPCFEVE

[13] = microbe, parasite or virus in culture; type: functional; details: Mycobacterium tuberculosis
[14] = Trypanosoma cruzi growth suppression in host cells – NIH3T3 host cells, beta-gal luminescence, confirmation (AID 2044); type: functional, cell-based;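 further: intracellular parasites grown in NIH/3T3 mouse fibroblasts as host cells; luminescent beta-galactosidase reporter signal from transgenic T. cruzi replicating inside host cells; inhibitors lower the luminescence signal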
[15] = NIH3T3 cell viability loss – ATP luminescence, mouse fibroblasts, counter-screen, dose response (AID 2010); type: functional, cell-based;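 further: cells exposed to compound for about 90 hours before reading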

## CCc1cc2cccc(C)c2nc1SCC(=O)NNC(=O)c1ccco1
Major prion protein
  IC50: 3.73 µM (active)
Cells [1]
  IC50: > 138 µM (inactive)

## Cc1ccc2c(C)c(C(=O)N(Cc3cccs3)C3CCS(=O)(=O)C3)oc2c1 (stereo unspecified)
[2]
  EC50: 2.66 µM (active)
[3]
  EC50: 63.6 µM (inactive)
Mu-type opioid receptor
  EC50: > 92.5 µM (inactive)
[4]
  EC50: > 92.5 µM (inactive)

## Cc1ccc(S(=O)(=O)N(C)C)cc1NC(=O)C(C)N(C)CCOc1ccc(Cl)cc1 (stereo unspecified)
[5]
  AC50: 18.7 µM (active)
[6]
  AC50: 57 µM (active)
[7]
  AC50: 1.85 µM (active)
[8]
  AC50: 39.3 µM (active)

## CCOC(=O)Cc1csc(NC(=O)c2cc(=O)c3ccccc3o2)n1
Galanin receptor type 3
  IC50: 3.82 µM (active)
Cells [9]
  EC50: > 29.9 µM (inactive)

## Cc1ccc(NC(=O)COC(=O)C(NS(=O)(=O)c2ccc(Cl)cc2)C(C)O)c(Br)c1 (stereo unspecified)
[10]
  IC50: 35.9 µM (inactive)
Steroidogenic factor 1
  IC50: 1.33 µM (active)
[11]
  IC50: 35.9 µM (inactive)

## CCCc1cc(=O)oc2c(C)c(OCC(=O)NC3CC(C)(C)NC(C)(C)C3)ccc12
[10]
  IC50: 35.9 µM (inactive)
Steroidogenic factor 1
  IC50: 0.443 µM (active)
[11]
  IC50: 35.9 µM (inactive)

## Cc1cc(C)nc(NS(=O)(=O)c2ccc(NC(=O)CSc3nc(O)c(C#N)c(-c4ccccc4)n3)cc2)n1
Major prion protein
  IC50: 6.28 µM (active)
Cells [1]
  IC50: > 138 µM (inactive)

## O=C(Cn1nnc2ccccc21)OCC(=O)c1ccc(Cl)c(Cl)c1
Beta-galactosidase
  EC50: > 40 µM (inactive)
[12]
  IC50: 13.3 µM (active)

## COCCN(C(=O)C1CC(=O)N(Cc2ccccc2)C1)c1nc(-c2ccc([N+](=O)[O-])cc2)cs1 (stereo unspecified)
[13]
  CC50: > 40 µM (active)
[3]
  EC50: > 92.5 µM (inactive)
Mu-type opioid receptor
  EC50: 22.9 µM (inactive)
[4]
  EC50: > 92.5 µM (inactive)

## Cc1cc(C)c2sc(NC(=O)c3ccc([N+](=O)[O-])o3)nc2c1
[14]
  EC50: 0.642 µM (active)
[15]
  EC50: > 60 µM (not active)
[10]
  IC50: 35.8 µM (inactive)
Steroidogenic factor 1
  IC50: 1.89 µM (active)
[11]
  IC50: 35.8 µM (inactive)

## CC1SC(C)C(=O)N(CC(=O)Nc2ccc3c(c2)OCO3)C1=O (stereo unspecified)
[10]
  IC50: 35.9 µM (inactive)
Steroidogenic factor 1
  IC50: 35.9 µM (inactive)
[11]
  IC50: 35.9 µM (inactive)

## COc1ccc(S(=O)(=O)NNc2nc(C)cc(C)n2)cc1[N+](=O)[O-]
Beta-galactosidase
  EC50: > 40 µM (inactive)
[12]
  IC50: 36.7 µM (not active)
